Like-named read-outs stand apart in the source and are kept apart here.
Assays:
[1] = tested on: purified collagenase from P. gingivalis; test: anti-collagenase activity, 3H-collagen hydrolysis; format: biochemical; conditions: for % Inhibition of collagenase: 24 h at 25° C.
Protocol: Collagenase activity in the presence of the preferred compound 2-aminophenazine-5,10-dioxide and in the presence of Tetracycline were measured by incubating ^3 H-collagen with purified collagenase from P. gingivalis using increasing drag concentrations. After 24 h at 25° C., unhydrolyzed collagen fibers were removed from the mixture by centrifugation, and the specific activity of ^3 H in the supernatant quantified as a measure of hydrolyzed collagen. Percent inhibition was determined by subtracting the value in the presence of test compound from the control value, then dividing this quantity by the control value [(control-compound)/control×100].

[2] = format: in vivo; conditions: for Other Signs of Toxicity: in vivo
Protocol: Toxicity was also evaluated in rodents via intravenous (IV) and oral (PO) routes of administration across a range of dose levels.

[3] = format: in vivo; conditions: for Other Signs of Toxicity: mouse, in vivo, ip
Source text: The potential for toxic side effects following systemic administration similar to the method used in the efficacy study was investigated by administering the compound 2-methylphenazine-5,10-dioxide to mice either in single or multiple intraperitoneal (IP) injections.

Nc1ccc2c(c1)[n+]([O-])c1ccccc1[n+]2[O-] [2-aminophenazine-5,10-dioxide]
% Inhibition of collagenase ([1]; 1 μg/ml): 11.6% | % Inhibition of collagenase ([1]; 10 μg/ml): 47.3% | % Inhibition of collagenase ([1]; 50 μg/ml): 57.3% | % Inhibition of collagenase ([1]; 100 μg/ml): 81.7% | anti-collagenase IC50 ([1]; estimated from Table 5): more than 10 μg/ml

Cc1ccc2c(c1)[n+]([O-])c1ccccc1[n+]2[O-] [2-methylphenazine-5,10-dioxide]
Deaths ([2]; Mice, 5 mg/kg IV, 25% Cremaphor, 1 administration): 0 | Deaths ([2]; Mice, 5 mg/kg IV, 30% Encapsin CD, 1 administration): 0 | Deaths ([2]; Mice, 5 mg/kg IV, 100% DMSO, 1 administration): 0 | Deaths ([2]; Mice, 30 mg/kg IV, 10% Cremaphor, 1 administration): 0 | Deaths ([2]; Mice, 40 mg/kg IV, 25% Cremaphor, 1 administration): 0 | Deaths ([2]; Mice, 50 mg/kg IV, 30% Encapsin CD, 1 administration): 0 | Deaths ([2]; Mice, 800 mg/kg PO, 100% Cremaphor, 1 administration): 0 | Deaths ([2]; Mice, 1000 mg/kg PO, 100% Cremaphor, 1 administration): 1/2 | Deaths ([2]; Rats, 5 mg/kg IV, 20% Cremaphor, 1 administration): 0 | Deaths ([2]; Rats, 10 mg/kg IV, 25% Encapsin CD/10% DMSO, 1 administration): 0 | Deaths ([2]; Rats, 20 mg/kg IV, 30% Encapsin CD, 1 administration): 0 | Deaths ([2]; Rats, 50 mg/kg PO, 2% Brij 35/Water, 1 administration): 0 | Deaths ([2]; Rats, 50 mg/kg PO, 10% Brij 35/Mineral Oil, 1 administration): 0 | Deaths ([2]; Rats, 50 mg/kg PO, 10% Brij 35/Water, 1 administration): 0 | Deaths ([2]; Rats, 50 mg/kg PO, Water, 1 administration): 0 | Deaths ([2]; Rats, 80 mg/kg PO, 10% Cremaphor, 1 administration): 0 | Deaths ([2]; Rats, 100 mg/kg PO, 2% Brij 35, 1 administration): 0 | Deaths ([2]; Rats, 100 mg/kg PO, 10% Arlacel 83/Corn Oil, 1 administration): 0 | Deaths ([2]; Rats, 100 mg/kg PO, 100% PEG400, 1 administration): 0 | Deaths ([2]; Rats, 100 mg/kg PO, 110% Encapsin CD, 1 administration): 0 | Deaths ([2]; Rats, 200 mg/kg PO, 100% Cremaphor, 1 administration): 0 | Other Signs of Toxicity ([2]; mouse, iv, 5 mg/kg): NONE | Other Signs of Toxicity ([2]; mouse, iv, 30 mg/kg): NONE | Other Signs of Toxicity ([2]; mouse, iv, 40 mg/kg): NONE | Other Signs of Toxicity ([2]; mouse, iv, 50 mg/kg): Abnormal Clin Obs | Other Signs of Toxicity ([2]; mouse, po, 800 mg/kg): NONE | Other Signs of Toxicity ([2]; mouse, po, 1000 mg/kg): NONE | Other Signs of Toxicity ([2]; rat, iv, 10 mg/kg): NONE | Other Signs of Toxicity ([2]; rat, iv, 20 mg/kg): NONE | Other Signs of Toxicity ([2]; rat, po, 50 mg/kg): NONE | Other Signs of Toxicity ([2]; rat, po, 80 mg/kg): NONE | Other Signs of Toxicity ([2]; rat, po, 100 mg/kg): NONE | Other Signs of Toxicity ([2]; rat, po, 200 mg/kg): NONE | Deaths ([3]; mice, 15 mg/kg IP, 2.5% CD, 17 injections): 0 | Deaths ([3]; mice, 30 mg/kg IP, DMSO, 15 injections): 0 | Deaths ([3]; mice, 60 mg/kg IP, 10% CD, 1 injection): 0 | toxicity ([3]; mice, IP, at several times the therapeutic dose): non-toxic | Other Signs of Toxicity ([3]; 15 mg/kg): NONE | Other Signs of Toxicity ([3]; 30 mg/kg): NONE | Other Signs of Toxicity ([3]; 60 mg/kg): NONE

Source: patent publication US5637591A, “Antimicrobial and anticollagenase activity of phenazine-5, 10-dioxide and derivatives” (Fuji ImmunoPharmaceuticals Corp., priority 1995, dated 1997)
